Laboratory results as given in patent US9907760B2 (LIBRAGEN, priority 2010, dated 2018).

Tests used:
[1] = system: normal human fibroblasts; assay: Hyaluronic acid production by normal human fibroblasts treated with supernatant of treated keratinocytes (HA-ELISA); format: cell-based; settings: supernatant on fibroblasts 48 hrs; for % stimulation of hyaluronic acid synthesis: vs Control
Protocol: Normal human dermal fibroblasts were cultured to confluence. Cells were treated for 48 hours with supernatants of normal human keratinocytes previously grown in the presence of the test products. The fibroblast supernatants, containing hyaluronic acid, were collected and assayed immediately. Hyaluronic acid was quantified with an ELISA microtiter plate. Protein content was determined for each well of the microtiter plate.
Primocultures of normal human keratinocytes (NHK) were obtained from cells isolated from skin specimens from plastic surgery.
NHK were seeded at a density of 130,000 cells/well in specific KSFM culture medium (Gibco®, Invitrogen) in a 24-well plate. The plate was placed in a humid incubator (37° C., 5% CO2) for 24 hours.
Primocultures of normal human fibroblasts (NHF) were obtained from cells isolated from skin specimens from plastic surgery.
NHF were seeded at a density of 90,000 cells/well in E-199 culture medium supplemented with 0.5% FCS (Gibco® Invitrogen) in a 24-well plate. The plate was placed in a humid incubator (37° C., 5% CO2) for 24 hours.
The two cell types—NHK and NHF—were plated 48 hours apart.
The different products at the respective concentrations (diluted in KSFM medium, 600 μl) were contacted with NHK cells for 48 hours. Untreated cells were used as the control condition. Two plates were used to separately test NAG, and NAG+vitamin A propionate, on the one hand, and NAG6P, and NAG6P+vitamin A propionate, on the other hand.
Each treatment condition was evaluated on three wells of NHK cells.
After 48 hours, a fraction of NHK cell supernatant (300 μl/well) was removed and transferred well for well into NHF cell supernatants (300 μl E-199/well−fresh medium without FCS).
This gave a final volume of 600 μl/well (50:50 ratio of KSFM/E-199 medium) which remained on the NHF cells for 48 hours.
After 48 hours of treatment, the NHF cell supernatant was collected and centrifuged.
Hyaluronic acid was assayed in the cell supernatants as described in example 1.
The assay was performed in duplicate for each well.
Optical densities (OD) measured on each sample were plotted on a graph (specific standard curve in the kit). The hyaluronic acid concentration was expressed in ng/ml.
The amount of hyaluronic acid released by the cells was determined for each well and for each treatment condition, relative to the cell content expressed as μg of protein. Thus, the final result was expressed as ng/ml of hyaluronic acid per μg of protein.
(§1) A mean value was calculated for wells treated with the same concentration of test product. This mean was compared with the mean of the control wells (Student t test−comparison of means−significant difference at 95% if p<0.05* and at 99% if p<0.01**).
The percent stimulation induced by the test products was determined by comparing the mean values of the control and treatment conditions: % Stimulation=(Treated−Control)/Control

[2] = system: normal human fibroblasts; assay: Procollagen 1 production by normal human fibroblasts treated with supernatant of treated keratinocytes (EIA); format: cell-based; settings: supernatant on fibroblasts 48 hrs; for % stimulation (procollagen 1): vs Control
Protocol: This experiment was carried out according to the method described in example 3. Fibroblast supernatants, containing procollagen 1, were collected and assayed immediately for procollagen 1 by means of an EIA microtiter plate.
After 48 hours of treatment, NHF cell supernatants were collected and centrifuged.
Procollagen 1 was assayed in the cell supernatants by the method described in the Procollagen Type 1 C-peptide EIA kit (MK101, Takara). This is an EIA assay with spectrophotometric detection at 450 nm (Safire, Tecan).
Duplicate determinations were carried out for two wells whereas the third well was assayed only once.
Optical densities (OD) measured on each sample were plotted on a graph (specific standard curve in the kit). The procollagen 1 concentration was expressed in ng/ml.
As in example 3, the protein content was determined in the cell pellets of the supernatants for which procollagen 1 was assayed.
as §1, with “Thus, the final result was expressed as ng/ml of procollagen 1 per μg of protein. A” for “A”, “means, significant” for “means−significant”
The percent stimulation produced by the test products was determined by comparing the mean values of the control and treatment conditions: % Stimulation=(Treated−Control)/Control

## CC(=O)N[C@H]1C(O)O[C@H](COP(=O)(O)O)[C@@H](O)[C@@H]1O (stereo partly drawn) [NAG6P, N-acetylglucosamine-6-phosphate]
[1]; 5 mM on keratinocytes 48 hrs
  Hyaluronic acid: 3524.1 ± 198.6 ng/mL
  Hyaluronic acid (ng/ml/μg prot.): 401.7 ± 38.3 ng/ml/μg prot.
  % stimulation of hyaluronic acid synthesis: 7%
[1]; 10 mM on keratinocytes 48 hrs
  Hyaluronic acid: 3507.6 ± 213.3 ng/mL
  Hyaluronic acid (ng/ml/μg prot.): 382.9 ± 20.5 ng/ml/μg prot.
  % stimulation of hyaluronic acid synthesis: 2%
[2]; 5 mM on keratinocytes 48 hrs
  Procollagen 1: 653.4 ± 36.6 ng/mL
  Procollagen 1 (ng/ml/μg prot.): 74.6 ± 5.3 ng/ml/μg prot.
  % stimulation (procollagen 1): 2%
[2]; 10 mM on keratinocytes 48 hrs
  Procollagen 1: 677.7 ± 64.6 ng/mL
  Procollagen 1 (ng/ml/μg prot.): 72.7 ± 4.4 ng/ml/μg prot.
  % stimulation (procollagen 1): −1%
